According to BigSolDB 2.1:

CCCCCc1ccc2c(c1)C(=O)c1ccccc1C2=O
solubility (mole fraction)
Details	288.15 K	293.15 K	298.15 K	303.15 K	308.15 K	313.15 K	318.15 K	323.15 K
in 2-butanone	0.0341	0.0431	0.0513	0.0587	0.0683	0.0828	0.105	0.129
in MIBK	0.0433	0.0539	0.0601	0.0676	0.0744	0.0836	0.104	0.126
in acetone	0.0225	0.0299	0.0376	0.0443	0.0517	–	0.0815	0.105
in acetonitrile	0.00299	0.00478	0.00811	0.0127	0.0203	–	0.051	0.0786
in ethanol	0.0029	0.00392	0.00531	0.00725	0.00988	0.0145	0.0195	0.0265
in ethyl acetate	0.0501	0.0583	0.0663	0.0761	0.088	0.101	0.12	0.151
in isopropyl acetate	0.0522	0.0598	0.0708	0.0842	0.0974	0.114	0.137	0.163
in methanol	0.00131	0.00199	0.00271	0.00364	0.00502	0.00682	0.00928	0.0131
in n-butanol	0.00826	0.0111	0.0154	0.021	0.0275	0.0346	0.0446	0.0626
in n-propanol	0.00541	0.00743	0.0102	0.0144	0.02	0.0265	0.0346	0.049
in sec-butanol	0.00259	0.00378	0.0056	0.00842	0.012	0.0182	0.0257	0.0388
